Patent US20080085893A1, “MATRIX METALLOPROTEASE INHIBITORS” (priority 2006, published 2008)
Several values for one entry are separate records, joined by “and”; a condition that tells them apart may be missing. Equal values may be shown once.

How the values were obtained:
Assay type in all cases: biochemical
[1] = target: T1, human MMP-9 (amino acids 107-446) (Homo sapiens, UniProt P14780); assay: MMP dose response assay for determining IC50, MMP-9; settings: recombinant enzyme, fluorescent-quench substrate 100 nM; read-out: MMP-9
T1 construct: human MMP-9 (amino acids 107-446); made in house
In short: (§1)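 Recombinant enzymes in 50 mM HEPES pH 7.4, 10 mM CaCl2, 0.05% Brij-35, at empirically set levels keeping activity linear, preincubated 1 h at room temperature with compound in triplicate. Fluorescence-quench peptide substrate (Eu/QSY7) added at 100 nM final. Background-subtracted signal expressed as percent of DMSO control for IC50.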

[2] = target: T2, human MMP-3 (amino acids 100-265) (Homo sapiens, UniProt P08254); assay: MMP dose response assay for determining IC50, MMP-3; settings: recombinant enzyme, fluorescent-quench substrate 100 nM
T2 construct: human MMP-3 (amino acids 100-265); made in house
Procedure: (§2) MMP Dose Response Assay for Determining IC50
(§3) The following method was used for determining IC50 values of different inhibitor compounds against multiple MMP enzymes. Frozen stocks of recombinantly produced MMPs were prepared in assay buffer (50 mM HEPES pH 7.4, 10 mM CaCl2, 0.05% Brij-35). The following domains were used to produce catalytically active version of the indicated MMP enzymes, human MMP-1 (amino acids 100-262), human MMP-2 (amino acids 1-660), human MMP-3 (amino acids 100-265), human MMP-9 (amino acids 107-446), human MMP-13 (amino acids 103-268), and rat MMP-9 (amino acids 108-446). Enzyme concentrations in the assay were determined empirically and set such that proteolytic activity was maintained in a linear range over the time-course of the experiment. Diluted enzymes were mixed with various test compounds that had been pre-diluted into assay buffer to establish concentration curves ranging from 10^−5 M to 10^−12 M. Compounds were diluted into assay buffer that contained an appropriate concentration of DMSO to maintain this at a constant in all wells. Each concentration for each test compound was tested in triplicate. MMP enzymes were equilibrated with compounds for 1 hour at room temperature, then a fluorescent-quench substrate (Acetyl-Cys(Eu)-Pro-Leu-Gly-Leu-Lys-(QSY7)-Ala-Arg-amide) was added to a final concentration of 100 nM. Following a 15 minute room temperature incubation, the assay plate was read on an EnVision plate reader using the following parameters: excitation wavelength 340 nM, emission wavelength 615 nM, number of flashes 100, delay before reading 300 milliseconds. Data was analyzed by first calculating average background value from wells that contained only substrate, and this value was subtracted from the entire plate. The 100%, or maximum value, was determined by averaging control wells that contained enzyme, substrate and DMSO. For each well, the percent of control was calculated by dividing the well value by the average DMSO value obtained above.
(§4) Additionally, compounds 27, 3, 65, 66, and 97 were tested in vitro for MMP-3, MMP-9 (rat), and MMP-13 antagonism.

[3] = target: T3, human MMP-13 (amino acids 103-268) (Homo sapiens, UniProt P45452); assay: MMP dose response assay for determining IC50, MMP-13; settings: recombinant enzyme, fluorescent-quench substrate 100 nM
T3 construct: human MMP-13 (amino acids 103-268); made in house
Procedure: as §2, §3, §4

[4] = target: T4, human MMP-1 (amino acids 100-262) (Homo sapiens, UniProt P03956); assay: MMP dose response assay for determining IC50, MMP-1; settings: recombinant catalytic domain, fluorescent-quench substrate 100 nM
T4 construct: human MMP-1 (amino acids 100-262); made in house
T4 sequence (P03956 100-262): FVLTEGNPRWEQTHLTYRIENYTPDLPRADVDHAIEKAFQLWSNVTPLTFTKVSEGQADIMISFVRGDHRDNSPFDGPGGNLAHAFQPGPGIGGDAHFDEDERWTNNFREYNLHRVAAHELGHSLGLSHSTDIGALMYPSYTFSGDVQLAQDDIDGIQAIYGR
In short: as §1

[5] = target: T5, human MMP-2 (amino acids 1-660) (Homo sapiens, UniProt P08253); assay: MMP dose response assay for determining IC50, MMP-2; settings: recombinant enzyme, fluorescent-quench substrate 100 nM; read-out: MMP-2
T5 construct: human MMP-2 (amino acids 1-660); made in house
T5 sequence (P08253 110-660): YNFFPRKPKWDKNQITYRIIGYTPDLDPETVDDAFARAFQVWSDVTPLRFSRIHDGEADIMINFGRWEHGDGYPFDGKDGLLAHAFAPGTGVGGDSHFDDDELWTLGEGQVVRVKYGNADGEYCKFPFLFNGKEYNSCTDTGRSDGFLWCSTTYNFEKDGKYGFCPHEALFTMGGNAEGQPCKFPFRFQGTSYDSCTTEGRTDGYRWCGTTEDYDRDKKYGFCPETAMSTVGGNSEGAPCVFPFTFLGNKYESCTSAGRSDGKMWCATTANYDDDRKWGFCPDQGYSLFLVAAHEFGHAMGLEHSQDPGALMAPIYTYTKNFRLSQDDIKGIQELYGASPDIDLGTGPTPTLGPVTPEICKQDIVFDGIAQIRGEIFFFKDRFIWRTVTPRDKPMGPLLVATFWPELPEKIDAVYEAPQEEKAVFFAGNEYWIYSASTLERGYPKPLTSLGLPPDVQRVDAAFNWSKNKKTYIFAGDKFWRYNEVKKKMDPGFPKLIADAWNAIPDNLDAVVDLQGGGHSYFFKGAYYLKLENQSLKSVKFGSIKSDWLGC
In short: as §1

[6] = target: T6, rat MMP-9 (amino acids 108-446) (Rattus norvegicus, UniProt P50282); assay: MMP dose response assay for determining IC50, rat MMP-9; settings: rat enzyme
T6 construct: rat MMP-9 (amino acids 108-446); made in house
Procedure: as §2
as §3, with “Diluted enzymes were mixed with various test compounds that had been pre-diluted into assay buffer to establish concentration curves ranging from 10^−5 M to 10^−12 M. Compounds were diluted into assay buffer that contained an appropriate concentration of DMSO to maintain this at a constant in all wells. Each concentration for each test compound was tested in triplicate. MMP enzymes were equilibrated with compounds for 1 hour at room temperature, then a fluorescent-quench substrate (Acetyl-Cys(Eu)-Pro-Leu-Gly-Leu-Lys-(QSY7)-Ala-Arg-amide) was added to a final concentration of 100 nM.” left out, “For each well, the percent of control was calculated by dividing the well value by the average DMSO value obtained above.” left out

T1 sequence (P14780 107-446): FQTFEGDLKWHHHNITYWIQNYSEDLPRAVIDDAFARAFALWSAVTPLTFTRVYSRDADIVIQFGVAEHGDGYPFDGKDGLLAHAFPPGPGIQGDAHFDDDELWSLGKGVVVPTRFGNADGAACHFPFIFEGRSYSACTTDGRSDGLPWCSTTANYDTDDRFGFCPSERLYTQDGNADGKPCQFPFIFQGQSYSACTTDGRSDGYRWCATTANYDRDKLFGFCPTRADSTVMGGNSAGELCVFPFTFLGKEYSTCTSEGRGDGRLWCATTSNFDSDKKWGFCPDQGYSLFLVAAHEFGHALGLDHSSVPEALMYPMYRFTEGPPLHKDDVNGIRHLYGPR
T2 sequence (P08254 100-265): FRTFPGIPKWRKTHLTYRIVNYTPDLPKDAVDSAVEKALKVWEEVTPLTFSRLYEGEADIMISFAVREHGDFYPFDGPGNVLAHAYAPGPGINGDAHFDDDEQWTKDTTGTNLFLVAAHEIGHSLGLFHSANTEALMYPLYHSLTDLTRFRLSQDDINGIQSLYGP
T6 sequence (P50282 108-446): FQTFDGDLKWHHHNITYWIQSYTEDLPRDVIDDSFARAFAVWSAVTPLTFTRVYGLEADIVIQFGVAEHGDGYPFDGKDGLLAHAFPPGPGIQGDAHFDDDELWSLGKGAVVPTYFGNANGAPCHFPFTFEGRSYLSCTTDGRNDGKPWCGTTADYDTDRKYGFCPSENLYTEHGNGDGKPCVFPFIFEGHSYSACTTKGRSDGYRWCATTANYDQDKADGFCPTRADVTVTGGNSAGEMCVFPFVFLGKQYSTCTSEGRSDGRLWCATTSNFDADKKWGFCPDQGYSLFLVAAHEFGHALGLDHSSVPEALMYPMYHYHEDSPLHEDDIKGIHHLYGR

| SMILES | IC50 [1] | IC50 [2] | IC50 [3] | IC50 [4] [nM] | IC50 [5] | IC50 [6] [nM] |
| --- | --- | --- | --- | --- | --- | --- |
| CS(=O)(=O)N(C[C@@H](C(=O)NO)N1CCOCC1)c1ccc(Oc2ccc(C(F)(F)F)cc2)cc1 [Example 3, N-Hydroxy (2S)-2-(morpholin-4-yl)-3-{N-[4-(4-trifluoromethylphenoxy)phenyl],N-methanesulfonylamino}propionamide] | 4.06 nM and 3.53 nM and 2.37 nM and 2.76 nM and 7.64 nM and 2.89 nM and 2.08 nM and 2.79 nM and 18.4 nM and 7.46 nM | 63.7 nM and 105 nM | 30.5 nM and 56.1 nM |  |  |  |
| Cc1ccc(Oc2ccc(N(C[C@@H](C(=O)NO)N3CCOCC3)S(C)(=O)=O)cc2)cc1 [Example 27, N-Hydroxy (2S)-3-{N-[4-(4-methylphenoxy)phenyl],N-methanesulfonylamino}-2-(morpholin-4-yl)propionamide] | 1.52 nM and 2.56 nM and 0.93 nM and 4.05 nM and 2.49 nM | 136 nM | 3.53 nM | > 10000 | 3.21 nM and 4.98 nM and 4.19 nM and 10.7 nM and 8.28 nM | 25.8 |
| Cc1ccc(Oc2ccc(N(C[C@@H](C(=O)NO)N3CCC(O)(c4ccc(Br)cc4)CC3)S(C)(=O)=O)cc2)cc1 [Example 65, N-Hydroxy (2S)-2-[4-(4-bromophenyl)-4-hydroxypiperidin-1-yl]-3-{N-[4-(4-methylphenoxy)phenyl],N-methanesulfonylamino}propionamide] | 0.65 nM | 492 nM | 411 nM | > 10000 | 0.37 nM |  |
| Cc1ccc(Oc2ccc(N(C[C@H](NCCc3c[nH]c4ccccc34)C(=O)NO)S(C)(=O)=O)cc2)cc1 [Example 66] | 2.88 nM | 822 nM | 847 nM | > 10000 | 41.2 nM |  |
| COC[C@@H]1CCCN1[C@@H](CN(c1ccc(Oc2ccc(C(F)(F)F)cc2)cc1)S(C)(=O)=O)C(=O)NO [Example 82, N-Hydroxy (2S)-2-[(2S)-2-methoxymethylpyrrolidin-1-yl]-3-{N-[4-(4-trifluoromethylphenoxy)phenyl],N-methanesulfonylamino}propionamide] | 7.32 nM |  |  | > 10000 | 11.3 nM |  |
| CS(=O)(=O)N1CCN([C@@H](CN(c2ccc(Oc3ccc(C(F)(F)F)cc3)cc2)S(C)(=O)=O)C(=O)NO)CC1 [Example 83, N-Hydroxy (2S)-2-(4-methanesulfonylpiperazin-1-yl)-3-{N-[4-(4-trifluoromethylphenoxy)phenyl],N-methanesulfonylamino}propionamide] | 1.94 nM and 4.5 nM |  |  | > 10000 | 6.21 nM and 13.5 nM |  |
| CC(=O)N1CCN([C@@H](CN(c2ccc(Oc3ccc(C(F)(F)F)cc3)cc2)S(C)(=O)=O)C(=O)NO)CC1 [Example 84, N-Hydroxy (2S)-2-(4-acetylpiperazin-1-yl)-3-{N-[4-(4-trifluoromethylphenoxy)phenyl],N-methanesulfonylamino}propionamide] | 4.81 nM |  |  | > 10000 | 8.55 nM |  |
| C[C@@H]1CN([C@@H](CN(c2ccc(Oc3ccc(C(F)(F)F)cc3)cc2)S(C)(=O)=O)C(=O)NO)C[C@H](C)O1 [Example 86, N-Hydroxy (2S)-2-(cis-2,6-dimethylmorpholin-4-yl)-3-{N-[4-(4-trifluoromethylphenoxy)phenyl],N-methanesulfonylamino}propionamide] | 0.48 nM and 0.86 nM and 2.08 nM and 2.71 nM and 0.35 nM |  |  | 8040 | 2.69 nM and 4.57 nM and 9.44 nM and 8.32 nM and 3.04 nM |  |
| CS(=O)(=O)N(C[C@@H](C(=O)NO)N1CCNC(=O)C1)c1ccc(Oc2ccc(C(F)(F)F)cc2)cc1 [Example 87, N-Hydroxy (2S)-2-(3-oxopiperazin-1-yl)-3-{N-[4-(4-trifluoromethylphenoxy)phenyl],N-methanesulfonylamino}propionamide] | 7.94 nM |  |  | > 10000 | 19.8 nM |  |
| CC(C)N(C)[C@@H](CN(c1ccc(Oc2ccc(C(F)(F)F)cc2)cc1)S(C)(=O)=O)C(=O)NO [Example 97, N-Hydroxy (2S)-2-[N-methyl,N-(2-prolyl)amino]-3-{N-[4-(4-trifluoromethylphenoxy)phenyl],N-methanesulfonylamino}propionamide] | 5.48 nM and 12.2 nM | 218 nM | 12.4 nM |  | 17.4 nM and 29.9 nM | 175 |
